Experimental data as given in US7534915B2, “Non-symmetrical gelling agent” (Applied Nanosystems B.V., priority 2003, dated 2009).

Test: Gel test (vial inversion)
Type: physicochemical
Procedure: A weighed amount of solid was dissolved in 0.5 or 1 ml of the solvent in a closed 2.0 ml vial using a heating gun or a heating block and subsequently slowly cooled to room temperature by standing in the air. Gelation was determined by turning the vial upside down and gentle shaking. If no flow of the mass was observed, the mass was defined to be a gel. Alternatively, a weighed amount of solid was dissolved in 1 mL of solvent by the addition of acid or base. The subsequent addition of base or acid then gave gelation. Alternatively, a weighed amount of solid was dissolved in a small amount of solvent. The subsequent addition of a large amount of non-solvent then gave gelation. Alternatively, the solution of gelator/thickener was added to the non-solvent, resulting in gelation. Alternatively, a weighed amount of solid was mixed with 1 mL of solvent by sonication. After stopping the sonication, gelation occurred. Alternatively a weighed amount of solid was mixed with 1 mL of solvent by brief vortexing after which gelation occurred. Alternatively a weighed amount of solid was mixed with 1 mL of solvent after which gelation occurred.

[1] = PEG 400 (printed PEG for compound 20)

SMILES: CCCC[C@H](NC(=O)[C@@H]1C[C@H](C(=O)O)C[C@H](C(=O)N[C@@H](CCCC)C(=O)OC)C1)C(=O)OC [Compound 31, CHex(AmNleOMe)2(COOH)]
- Gel test (EtOH): gel
- Gel test [1]: gel

SMILES: CCCC[C@H](NC(=O)[C@@H]1C[C@H](C(=O)O)C[C@H](C(=O)N[C@@H](CCCC)C(=O)O)C1)C(=O)O [Compound 32, CHex(AmNleOH)2(COOH)]
- Gel test (H2O, concentration not given): gel

SMILES: O=C(NCCOCCO)[C@@H]1C[C@H](C(=O)NCCOCCO)C[C@H](C(=O)N[C@@H](Cc2ccccc2)C(=O)Nc2ccc3ccccc3c2)C1 [Compound 2, CHex(AmPhe-AmβNA)(AmEtOEtOH)2]
- Gel test (1 mg/mL in H2O): clear gel

SMILES: O=C(O)[C@@H]1C[C@H](C(=O)O)C[C@H](C(=O)N[C@@H](Cc2ccccc2)C(=O)NCCc2ccccc2)C1 [Compound 25, CHex(AmPheAmEtPh)(COOH)2]
- Gel test (H2O, concentration not given): gel
- Gel test (toluene): gel

SMILES: COC(=O)[C@H](Cc1ccccc1)NC(=O)[C@H](Cc1ccccc1)NC(=O)[C@@H]1C[C@H](C(=O)O)C[C@H](C(=O)O)C1 [Compound 22, CHex(AmPheAmPheOMe)(COOH)2]
- Gel test (toluene): gel

SMILES: CSCC[C@H](NC(=O)[C@@H]1C[C@H](C(=O)NCCOCCO)C[C@H](C(=O)NCCOCCO)C1)C(=O)Nc1ccc2ccccc2c1 [Compound 4, CHex(AmMet-AmβNA)(AmEtOEtOH)2]
- Gel test (1 mg/mL in H2O): clear gel
- Gel test (3 mg/mL in MeOH): clear gel

SMILES: O=C(O)[C@H]1C[C@@H](C(=O)N[C@@H](CO)C(=O)Nc2ccc3ccccc3c2)C[C@@H](C(=O)N[C@@H](CO)C(=O)Nc2ccc3ccccc3c2)C1 [Compound 36, CHex(AmSerAmβNA)2(COOH)]
- Gel test (DMSO/CH2Cl2 mixtures): gel
- Gel test (DMSO/EtOH mixtures): gel
- Gel test (DMSO/H2O mixtures): gel
- Gel test (DMSO/MeCN mixtures): gel
- Gel test (DMSO/toluene mixtures): gel
- Gel test (H2O, concentration not given): gel
- Gel test (H2O/t-BuOH (TBA/H2O) mixtures): gel
- Gel test (MeCN): weak gel

SMILES: O=C(O)[C@@H]1C[C@H](C(=O)O)C[C@H](C(=O)N[C@@H](Cc2ccccc2)C(=O)N[C@@H](Cc2ccccc2)C(=O)O)C1 [Compound 23, CHex(AmPheAmPheOH)(COOH)2]
- Aqueous gel formation by acidification (compound 22 heated in 1N NaOH (aq), cooled to RT, 2N HCl (aq) added): gel

SMILES: COc1ccc(NC(=O)[C@H](Cc2ccccc2)NC(=O)[C@@H]2C[C@H](C(=O)O)C[C@H](C(=O)O)C2)cc1 [Compound 9, CHex(AmPhe-AmPh-OMe)(COOH)2]
- Gel test (3 mg/mL in H2O): clear gel

SMILES: COC(=O)[C@H](Cc1ccccc1)NC(=O)[C@@H]1C[C@H](C(=O)O)C[C@H](C(=O)N[C@@H](Cc2ccccc2)C(=O)OC)C1 [Compound 30, CHex(AmPhe-OMe)2(COOH)]
- Gel test (3 mg/mL in H2O): clear gel
- Gel test (EtOH/H2O mixtures): gel
- Gel test (PEG 400/H2O mixtures): gel
- Gel test (olive oil): gel
- Gel test (toluene): gel

SMILES: COC(=O)[C@H](Cc1ccccc1)NC(=O)[C@@H]1C[C@H](C(=O)N[C@@H](Cc2ccccc2)C(=O)OC)C[C@H](C(=O)OCc2ccccc2)C1 [Compound 29, CHex(AmPhe-OMe)2(OBn)]
- Gel test (EtOH): gel
- Gel test (MeOH): gel
- Gel test (olive oil): gel
- Gel test (toluene): gel

SMILES: CSCC[C@H](NC(=O)[C@@H]1C[C@H](C(=O)NCCO)C[C@H](C(=O)NCCO)C1)C(=O)Nc1ccc2ccccc2c1 [Compound 5, CHex(AmMet-AmβNA)(AmEtOH)2]
- Gel test (2 mg/mL in H2O): clear gel

SMILES: O=C(N[C@@H](CO)C(=O)Nc1ccc2ccccc2c1)[C@@H]1C[C@H](C(=O)N[C@@H](CO)C(=O)Nc2ccc3ccccc3c2)C[C@H](C(=O)OCc2ccccc2)C1 [Compound 35, CHex(AmSerAmβNA)2(COOBn)]
- Gel test (DMSO/CH2Cl2 mixtures): gel
- Gel test (DMSO/EtOH mixtures): gel
- Gel test (DMSO/MeCN mixtures): gel
- Gel test (DMSO/MeOH mixtures): gel
- Gel test (DMSO/toluene mixtures): gel
- Gel test (EtOH): gel
- Gel test (MeCN): gel

SMILES: CC(C)C[C@H](NC(=O)[C@@H]1C[C@H](C(=O)O)C[C@H](C(=O)N[C@@H](CC(C)C)C(=O)Nc2ccc3ccccc3c2)C1)C(=O)Nc1ccc2ccccc2c1 [Compound 37, CHex(AmLeuAmβNA)2(COOH)]
- Gel test (DMSO/H2O mixtures): gel
- Gel test (H2O/MeOH mixtures): gel
- Gel test (H2O/iPrOH mixtures): gel
- Gel test (H2O/t-BuOH (TBA/H2O) mixtures): gel

SMILES: CNC(=O)[C@H](Cc1ccccc1)NC(=O)[C@@H]1C[C@H](C(=O)N[C@@H](Cc2ccccc2)C(=O)NC)C[C@H](C(=O)OCc2ccccc2)C1 [Compound 33, CHex(AmPheAmMe)2(COOBn)]
- Gel test (DMSO): turbid gel

SMILES: O=C(N[C@@H](Cc1ccccc1)C(=O)NC1CCCCC1)[C@H]1C[C@@H](C(=O)OCc2ccccc2)C[C@@H](C(=O)OCc2ccccc2)C1 [Compound 16, CHex(OBn)2(AmPheAmCHex)]
- Gel test (EtOH): gel
- Gel test (MeCN): gel
- Gel test [1]: gel
- Gel test (olive oil): gel

SMILES: O=C(NCCOCCO)[C@@H]1C[C@H](C(=O)NCCOCCO)C[C@H](C(=O)N[C@@H](Cc2ccccc2)C(=O)Nc2ccc([N+](=O)[O-])cc2)C1 [Compound 14, CHex(AmPheAmPhNO2)(AmEtOEtOH)2]
- Gel test (H2O, concentration not given): yellow, weak gel
- Stability upon heating in water (heating in water, yellow color (p-NA) observed): hydrolysis of the PheAmPhNO2 amide takes place

SMILES: CCCCCCCCCCNC(=O)[C@H](Cc1ccccc1)NC(=O)[C@@H]1C[C@H](C(=O)O)C[C@H](C(=O)O)C1 [Compound 19, CHex(AmPheAmDecyl)(COOH)2]
- Gel test (H2O, concentration not given): clear gel
- Gel test (toluene): gel

SMILES: CSCC[C@H](NC(=O)[C@@H]1C[C@H](C(=O)NCc2ccncc2)C[C@H](C(=O)NCc2ccncc2)C1)C(=O)Nc1ccc2ccccc2c1 [Compound 6, CHex(AmMet-AmβNA)(AmCH2Pyr)2]
- Gel test (1 mg/mL in H2O): slightly turbid gel

SMILES: C[C@H](NC(=O)[C@@H]1C[C@H](C(=O)O)C[C@H](C(=O)O)C1)C(=O)Nc1ccc2ccccc2c1 [Compound 13, CHex(AmAlaAmβNA)(COOH)2]
- Gel test (H2O, concentration not given): gel

SMILES: O=C(NCCOCCO)[C@@H]1C[C@H](C(=O)NCCOCCO)C[C@H](C(=O)N[C@@H](Cc2ccccc2)C(=O)NC2CCCCC2)C1 [Compound 18, CHex(AmPheAmCHex)(AmEtOEtOH)2]
- Gel test (2 mg/mL in H2O): clear gel
- Gel test (20 mg/mL in DMSO): turbid gel

SMILES: COc1ccc(NC(=O)[C@H](Cc2ccccc2)NC(=O)[C@@H]2C[C@H](C(=O)NCCOCCO)C[C@H](C(=O)NCCOCCO)C2)cc1 [Compound 10, CHex(AmPhe-AmPh-OMe)(AmEtOEtOH)2]
- Gel test (3 mg/mL in H2O): clear gel

SMILES: O=C(NCCOCCO)[C@@H]1C[C@H](C(=O)NCCOCCO)C[C@H](C(=O)N[C@@H](Cc2ccccc2)C(=O)NCc2ccccc2)C1 [Compound 8, CHex(AmPhe-AmBn)(AmEtOEtOtH)2]
- Gel test (1 mg/mL in H2O): clear gel (thixotropic)
- Gel test (EtOH): gel
- Gel test (H2O/PG mixtures): gel
- Gel test (H2O/t-BuOH (TBA/H2O) mixtures): gel
- Gel test (MeCN): gel
- Gel test [1]: gel
- Gelation of emulsion (hydrogel 2 mg/ml + olive oil 200 μL, vortexed five seconds): gelated emulsion
- Gel test (olive oil): weak gel
- Gel test (propylene glycol (PG)): gel
- Gel test (t-BuOH): gel

SMILES: CCCCCC(C)NC(=O)[C@H](Cc1ccccc1)NC(=O)[C@@H]1C[C@H](C(=O)O)C[C@H](C(=O)O)C1 (stereo partly shown) [Compound 21, CHex(AmPheAm2-Heptyl)(COOH)2]
- Gel test (H2O, concentration not given): gel
- Gel test (toluene): gel

SMILES: CSCC[C@H](NC(=O)[C@@H]1C[C@H](C(=O)O)C[C@H](C(=O)O)C1)C(=O)Nc1ccc2ccccc2c1 [Compound 3, CHex(AmMet-AmβNA)(COOH)2]
- Gel test (3 mg/mL in H2O): slightly crystalline gel

SMILES: O=C(NCCOCCO)[C@@H]1C[C@H](C(=O)NCCOCCO)C[C@H](C(=O)N[C@@H](Cc2ccccc2)C(=O)NCCc2ccccc2)C1 [Compound 26, CHex(AmPheAmEtPh)(AmEtOEtOH)2]
- Gel test (H2O, concentration not given): gel (thixotropic)
- Gel test (H2O/PG mixtures): gel
- Gel test (H2O/t-BuOH (TBA/H2O) mixtures): gel
- Gel test (propylene glycol (PG)): gel
- Gel test (t-BuOH): gel

SMILES: CCCCCCCCCCNC(=O)[C@H](Cc1ccccc1)NC(=O)[C@@H]1C[C@H](C(=O)NCCOCCO)C[C@H](C(=O)NCCOCCO)C1 [Compound 20, CHex(AmPheAmDecyl)(AmEtOEtOH)2]
- Gel test (EtOH): gel
- Gel test (H2O, concentration not given): gel
- Gel test [1]: gel
- Gel test (toluene): gel

SMILES: O=C(O)[C@@H]1C[C@H](C(=O)O)C[C@H](C(=O)N[C@@H](Cc2ccccc2)C(=O)Nc2ccc3ccccc3c2)C1 [Compound 1, CHex(AmPhe-AmβNA)(COOH)2]
- Gel test (3 mg/mL in H2O): slightly crystalline gel

SMILES: O=C(O)[C@@H]1C[C@H](C(=O)O)C[C@H](C(=O)N[C@@H](Cc2ccccc2)C(=O)NCc2ccccc2)C1 [Compound 7, CHex(AmPhe-AmBn)(COOH)2]
- Gel test (3 mg/mL in H2O): slightly turbid gel

SMILES: O=C(O)[C@H]1C[C@@H](C(=O)N[C@@H](Cc2ccccc2)C(=O)Nc2ccc3ccccc3c2)C[C@@H](C(=O)N[C@@H](Cc2ccccc2)C(=O)Nc2ccc3ccccc3c2)C1 [Compound 34, CHex(AmPheAmβNA)2(COOH)]
- Gel test (H2O, concentration not given): gel
- Gel test (H2O/t-BuOH (TBA/H2O) mixtures): gel

SMILES: O=C(NCCOCCO)[C@@H]1C[C@H](C(=O)NCCOCCO)C[C@H](C(=O)N[C@@H](Cc2ccc(O)cc2)C(=O)Nc2ccc3ccccc3c2)C1 [Compound 24, CHex(AmTyrAmβNA)(AmEtOEtOH)2]
- Gel test (1 mg/mL in H2O): clear gel
- Gel test (EtOH): gel
- Gel test (MeCN): gel
- Gel test (olive oil): gelly precipitate

SMILES: NC(=O)CC[C@H](NC(=O)[C@@H]1C[C@H](C(=O)O)C[C@H](C(=O)N[C@@H](CCC(N)=O)C(=O)Nc2ccc3ccccc3c2)C1)C(=O)Nc1ccc2ccccc2c1 [Compound 38, CHex(AmGlnAmβNA)2(COOH)]
- Gel test (H2O, concentration not given): gel
